Data taken from patent US20200338042A1, “USE OF DAPHNETIN IN TREATMENT OF AGE-RELATED COGNITIVE DECLINE” (XI'AN JIAOTONG UNIVERSITY, priority 2019, published 2020).

Experiments:
Assay type in all cases: in vivo
Aβ40 = test: ELISA detection of soluble Aβ40 in cerebral cortex tissues of APP/PS1 mice; settings: Group AD+Daphnetin (APP/PS1 mice, 100 mg/kg/day intragastrically) compared to Group AD+ddH2O; one week after water maze; FIG. 2A
Source text: (§1) APP/PS1 transgenic mouse model as the Alzheimer's disease transgenic mouse model was used in the experiments. The APP/PS1 double-transgenic mice overexpressing human Aβ precursor protein (APP) and presenilin 1 (PS1) in the brains can simulate typical pathological and neurological symptoms, such as Aβ deposition and cognitive function degeneration, of human AD.
(§2) The contents of Aβ40 and Aβ42 in the brain were detected by the enzyme-linked immunosorbent assay (ELISA) method to observe the effect of daphnetin for ameliorating abnormal protein deposition of the mice.
(§3) Daphnetin was purchased from Nanjing Puyi Biotechnology Co., Ltd.; Aβ40 and […] ELISA detection kits were purchased from Invitrogen Corporation. […]
(§4) Aβ plaque is a significant pathological feature of Alzheimer's disease. As Aβ40 and Aβ42 are most common in the process of producing Aβ, the contents of soluble Aβ40 and Aβ42 in the cerebral cortex tissues were detected by the ELISA method.
(§5) First, the cortex tissue was homogenized using a guanidine salt buffer (5 mol/L guanidine hydrochloride/50 mmol Tris HCl), and the tissue homogenate was centrifuged at 4° C. for 10 minutes at 10,000 g. […] The absorbance (OD450) at a wavelength of 450 nm was measured by a FlexStage3 microplate reader. Protein quantification was performed by using BCA method for ELISA protein calibration. […]

Aβ42 = test: ELISA detection of soluble Aβ42 in cerebral cortex tissues of APP/PS1 mice; settings: Group AD+Daphnetin (APP/PS1 mice, 100 mg/kg/day intragastrically) compared to Group AD+ddH2O; one week after water maze; FIG. 2B
Source text: as §1, §2, §3, §4, §5

APP/PS1 transgenic mice = test: Morris water maze experiment in APP/PS1 transgenic mice; settings: for path length for finding the platform in water maze: FIG. 1B
Source text: as §1
A water maze experiment was used to observe the effect of daphnetin for improving the cognitive function of the mice.
The 3-month-old APP/PS1 transgenic mice and control mice were purchased from the Model Animal Center of Nanjing University. All mice were fed in an environment with a temperature from 23° C. to 25° C., a humidity of 60%, and a 12 h/12 h day/night light cycles. Mice had free access to food and water during the experiment.
After adapting to the feeding environment, the experimental mice were divided into four groups: 1) a group of wild type (WT) mice to which double-distilled water (ddH2O) was daily administered intragastrically (Group WT+ddH2O), the number (n) of the mice is 11 (n=11); 2) a group of wild type mice to which daphnetin was daily administered intragastrically at 100 mg/kg/day (Group WT+Daphnetin), n=12; 3) a group of APP/PS1 mice to which ddH2O was daily administered intragastrically (Group AD+ddH2O), n=15; 4) a group of APP/PS1 mice to which daphnetin was daily administered intragastrically at 100 mg/kg/day (Group AD+Daphnetin), n=14. The entire experiment was lasted for 12 months.
The daily intragastric administrations of daphnetin or ddH2O were lasting for 9 months to corresponding groups of mice before the water maze experiment.
Morris water maze experiment is a classic way to test spatial learning and memory abilities in mice. The experiment was conducted in a round swimming pool with a diameter of 120 cm, divided into four quadrants I, II, III, and IV. A small round platform with a diameter of 7.5 cm was placed in the center the quadrant IV, and submerged 1 cm below the water surface. Four different-shaped markers as visual cues were placed corresponding to the four quadrants on the curtain support around the swimming pool. During the experiment, the water temperature was kept at 25° C., the surroundings were kept quiet, and the swimming pool was isolated from the external environment by the curtain. Each mouse was allowed to swim freely in the swimming pool for 60 seconds (s) on the day before the formal experiment to adapt to the swimming environment. […] The camera placed on the top of the pool recorded the paths of the mice finding the hidden platform in the swimming pool. […] The times and distances that the mice travels to the platform recorded by the camera video tracking system were used to analyze the learning and memory of the mice. […]

## O=c1ccc2ccc(O)c(O)c2o1 [Daphnetin, 7,8-dihydroxycoumarin]
Aβ40
  level of Aβ40 in the cerebral cortex tissues: significantly reduced
Aβ42
  level of Aβ42 in the cerebral cortex tissues: significantly reduced
APP/PS1 transgenic mice; 5-day training, worded as AD+ddH2O relative to AD+Daphnetin (100 mg/kg/day intragastrically, 9 months), i.e. lower AUC with daphnetin, FIG. 1C
  AUC of swimming time (escape latency) in water maze, Group AD+ddH2O compared to Group AD+Daphnetin: increased significantly
APP/PS1 transgenic mice; day 4 of training, Group AD+Daphnetin (APP/PS1 mice, 100 mg/kg/day intragastrically, 9 months) compared to Group AD+ddH2O
  path length for finding the platform in water maze: significant shortened
APP/PS1 transgenic mice; day 5 of training, Group AD+Daphnetin (APP/PS1 mice, 100 mg/kg/day intragastrically, 9 months) compared to Group AD+ddH2O, FIG. 1A
  escape latency in water maze (time to find the escape platform): significantly shortened
APP/PS1 transgenic mice; day 5 of training, Group AD+Daphnetin (APP/PS1 mice, 100 mg/kg/day intragastrically, 9 months) compared to Group AD+ddH2O
  path length for finding the platform in water maze: significant shortened
